Assay results taken from patent US20230021483A1, “[…] […] METHOD AND CLASSIFICATION OF PHARMACEUTICAL COMPONENTS BY USING TRANSCRIPTOMES” (National Institutes of Biomedical Innovation, Health and …, priority 2016, published 2023).

Columns and labels:
Assay type in all cases: in vivo, C57BL/6 mice
liver (LV) = test: Whole organ transcriptome (GeneChip microarray) of liver 6 h after adjuvant administration: sDEGs, hierarchical clustering; details: for adjuvant group (cluster) in LV: hierarchical clustering; for adjuvant group (cluster) in LV / Number of gene probes with statistically significant changes (sDEGs), LV, Down / Number of gene probes with statistically significant changes (sDEGs), LV, Up: liver; for Number of gene probes with statistically significant changes (sDEGs), LV, Down: fold change <0.667, p<0.01, customized PA call=1; for Number of gene probes with statistically significant changes (sDEGs), LV, Down / Number of gene probes with statistically significant changes (sDEGs), LV, Up: 6 h after adjuvant; for Number of gene probes with statistically significant changes (sDEGs), LV, Up: fold change >1.5, p<0.01, customized PA call=1; for cluster of strongly responding individual samples in LV (clustering exceptions): samples D35_ID_x2 and K3_ID_x3 only; as to adjuvant group (cluster) in LV: key: G1 (interferon signaling); G2 (metabolism of lipids and lipoproteins); G3 (response to stress); G4 (response to wounding); G5 (phosphate-containing compound metabolic process); G6 (phagosome); as to cluster of strongly responding individual samples in LV (clustering exceptions): key: G1 (interferon signaling); G2 (metabolism of lipids and lipoproteins); G3 (response to stress); G4 (response to wounding); G5 (phosphate-containing compound metabolic process); G6 (phagosome)
spleen (SP) = test: Whole organ transcriptome (GeneChip microarray) of spleen 6 h after adjuvant administration: sDEGs, hierarchical clustering; details: for adjuvant group (cluster) in SP: hierarchical clustering; for Number of gene probes with statistically significant changes (sDEGs), SP, Down: fold change <0.667, p<0.01, customized PA call=1, 6 h after adjuvant; for Number of gene probes with statistically significant changes (sDEGs), SP, Up: fold change >1.5, p<0.01, customized PA call=1, 6 h after adjuvant; as to adjuvant group (cluster) in SP: key: G1 (interferon signaling); G2 (metabolism of lipids and lipoproteins); G3 (response to stress); G4 (response to wounding); G5 (phosphate-containing compound metabolic process); G6 (phagosome)
circulating blood cells = test: Hematological cell count of peripheral blood 6 h after adjuvant administration (VetScan HMII)
Method: Take about 200 μL of blood from the retro-orbital venous plexus with a non-heparinized capillary tube and place the blood into a 1.5 mL tube comprising 2 μL of 10% EDTA-2K for hematological testing. Thoroughly mix the sample by gentle tapping. Stored at room temperature until hematological testing.
The hematological cell count was found using VetScan HMII (Abaxis). 50 μl of EDTA-2K blood sample was diluted by adding 250 μl of saline. Measurements are taken with VetScan HMII by following the instruction.
In a preliminary experiment, FCA and ALM were tested at different points up to 72 hours. […] At 6 hours after adjuvant administration, LV, SP, and LN (both sides) were removed to study the gene expression thereof by using Affimetrix Genechip microarray system (Affymetrix). The sampled organs were each placed in a tube containing RNAlater. The tube was maintained at 4° C. overnight, and stored at −80° C. until use. Blood was also collected after 6 hours from adjuvant administration for general hematological testing. About 200 μL of blood was taken from the retro-orbital venous plexus with a non-heparinized capillary tube and placed into a 1.5 mL tube comprising 2 μL of 10% EDTA-2K for hematological testing. The hematological cell count was found using VetScan HMII (Abaxis). 50 μl of EDTA-2K blood sample was diluted by adding 250 μl of saline. Measurements were taken with VetScan HMII by following the instruction.
The effect of adjuvant administration with respect to the changes in several hematological parameters was investigated. The following parameters were studied: white blood cells (WBC), lymphocytes (LYM), monocytes (MON), granulocytes (GRA), relative (%) content of lymphocytes (LY %), relative (%) content of monocytes (MO %), relative (%) content of granulocytes (GR %), red blood cells (RBC), hemoglobins (Hb, HGB), hematocrits (HCT), mean corpuscular volume (MCV), mean corpuscular hemoglobins (MCH), mean corpuscular hemoglobin concentration (MCHC), red blood cell distribution width (RDW), platelets (PLT), platelet concentration (PCT), mean platelet volume (MPV), and platelet distribution width (PDW).

[1] = peripheral blood 6 h after administration

Compound	adjuvant group (cluster) in LV (liver (LV))	Number of gene probes with statistically significant changes (sDEGs), LV, Down (liver (LV); i.d. administration)	Number of gene probes with statistically significant changes (sDEGs), LV, Up (liver (LV); i.d. administration)	adjuvant group (cluster) in SP (spleen (SP))	Number of gene probes with statistically significant changes (sDEGs), SP, Down (spleen (SP); i.d. administration)	Number of gene probes with statistically significant changes (sDEGs), SP, Up (spleen (SP); i.d. administration)	leukopenia (circulating blood cells; [1])	lymphopenia (circulating blood cells; [1])	monocytosis (monocytes in blood) (circulating blood cells; [1])	Number of gene probes with statistically significant changes (sDEGs), LV, Down (liver (LV); i.p. administration)	Number of gene probes with statistically significant changes (sDEGs), LV, Up (liver (LV); i.p. administration)	Number of gene probes with statistically significant changes (sDEGs), SP, Down (spleen (SP); i.p. administration)	Number of gene probes with statistically significant changes (sDEGs), SP, Up (spleen (SP); i.p. administration)	cluster of strongly responding individual samples in LV (clustering exceptions) (liver (LV))	granulocytosis (granulocytes in blood) (circulating blood cells; mouse, in vivo)	leukopenia (circulating blood cells; mouse, in vivo)	lymphopenia (circulating blood cells; mouse, in vivo)
Cc1ccc2c(=O)c3cccc(CC(=O)O)c3oc2c1C [DMXAA, 5,6-dimethylxanthenone-4-acetic acid]	G1	101	162	G1	48	121	–	–	–	–	–	–	–	–	–	–	–
CCOCc1nc2c(N)nc3ccccc3c2n1CC(C)(C)O [R848, 4-amino-2-(ethoxymethyl)-a,a-dimethyl-1H-imidazo[4,5-c]quinoline-1-ethanol]	G1	–	–	G1	–	–	caused leukopenia	strongly induced	–	–	–	–	–	–	–	–	–
CC(O)COC[C@H]1O[C@@H]2O[C@H]3[C@H](O)[C@@H](O)[C@@H](O[C@H]4[C@H](O)[C@@H](O)[C@@H](O[C@H]5[C@H](O)[C@@H](O)[C@@H](O[C@H]6[C@H](O)[C@@H](O)[C@@H](O[C@H]7[C@H](O)[C@@H](O)[C@@H](O[C@H]8[C@H](O)[C@@H](O)[C@@H](O[C@H]1[C@H](O)[C@H]2O)O[C@@H]8COCC(C)O)O[C@@H]7COCC(C)O)O[C@@H]6COCC(C)O)O[C@@H]5COCC(C)O)O[C@@H]4COCC(C)O)O[C@@H]3COCC(C)O (stereo partly drawn) [bCD, Hydroxypropyl-beta-cyclodextrin]	G2	315	107	G2	59	111	–	–	clearly induced	20	14	5	4	–	–	–	–
Nc1nc2c(ncn2[C@@H]2O[C@@H]3COP(=O)(O)O[C@H]4[C@@H](O)[C@H](n5cnc6c(N)ncnc65)O[C@@H]4COP(=O)(O)O[C@@H]2[C@@H]3O)c(=O)[nH]1 [cGAMP, Cyclic [G(2′,5′)pA(3′,5′)p]]	G1	248	841	G1	93	680	–	–	clearly induced	–	–	–	–	–	–	–	–
Nc1nc2c(ncn2[C@@H]2O[C@@H]3COP(=O)(O)O[C@H]4[C@@H](O)[C@H](n5cnc6c(=O)[nH]c(N)nc65)O[C@@H]4COP(=O)(O)O[C@H]3[C@H]2O)c(=O)[nH]1 [cdiGMP, Cyclic diguanylate monophosphate]	G1	–	–	G1	–	–	–	–	clearly induced	–	–	–	–	–	–	–	–
D35: A class CpG ODN (5′-GGTGCATCGATGCAGGGGGG-3′), TLR9 ligand (DNA GGTGCATCGATGCAGGGGGG; chemistry not given here)	–	36	15	–	19	23	–	–	–	–	–	–	–	G2	–	–	–
K3: B class CpG ODN (ATCGACTCTCGAGCGTTCTC), TLR9 ligand (chemistry not given here)	–	22	10	–	18	11	–	–	–	50	18	10	24	G2	–	–	–
Monophosphoryl lipid A [MPLA]	–	24	9	–	22	9	–	–	clearly induced	–	–	–	–	–	–	–	–
heptanoyl-γ-D-glutamyl-(L)-meso-diaminopimelyl-(D)-alanine [FK565]	G3	1972	2094	G3	624	1672	–	–	–	–	–	–	–	–	caused granulocytosis	caused leukopenia	strongly induced
